Measurements as given in article PMC8352872, “Biochemical and structural studies of target lectin SapL1 from the emerging opportunistic microfungus Scedosporium apiospermum” (Scientific Reports, 2021).

Key:
[1] = target: T1, SapL1 (Scedosporium apiospermum, UniProt A0A084FYP2); assay: (X-ray) and ITC (stoichiometry fixed to […]); format: binding
T1 construct: gene SAPIO_CDS9261; carbohydrate recognition domain, residues 75-369

[2] = target: T1, SapL1; assay: ITC (stoichiometry fixed to […]); format: binding
[3] = target: the molecule itself; assay: dynamic light scattering; protein at 1 mg/mL in 50 mM Tris-HCl, 100 mM NaCl, pH 8.5, measured in triplicate after centrifugation; data not shown

Molecule: CO[C@@H]1O[C@@H](C)[C@@H](O)[C@@H](O)[C@@H]1O [α-methyl-L-fucoside, methyl-α-L-fucopyranoside]
- Kd [1]: 190 ± 1.44 µM

Molecule: C[C@@H]1OC(O)[C@@H](O)[C@H](O)[C@@H]1O (stereo partly drawn) [L-fucose]
- Kd [2]: 225 ± 1.52 µM

B1: Scedosporium apiospermum Lectin 1 (SapL1), carbohydrate recognition domain, residues 75-369 (domain or fragment)
chain: MSGVLQISFPAGIAAIRNNSSLRVYEAALDGGVREAQYEGRWAGGKPDNVIATGKIGTPIAATSVGFQYIRVYYVGADNKAREACWDGKGWYTGAFVKDVAPYSSIGAVFLGKNIVVRVYTQNHDNTIQEWVWDSPSTGWTAGANFGAALPGTAIAATSWGAGPYHIRVYFQDTNRNVIESGWDGSGWYTGGLKISNQSPRASLGATSWGESGSSLGIRLYYATQDNLIKEKAWDGGGGWYDGGFQQRSIPGSRVAAIPLPVLRVYLQNGTEVSGITEYAWNSGWVVGQAVLPPA
notes: the first 74 residues of the annotated protein, which the authors suspect to be a misannotation, are left out; In the crystal all 295 amino acids are visible except the N-terminal methionine; also called hypothetical protein XP_016640003.1; source: E. coli BL21trxB (DE3), pProNde vector, purified (IMAC, TEV cleavage, second His-trap pass); not shown: His6, N-terminal, cleaved
- stoichiometry N [3]: 2
